# Test results taken from paper PMC5769417, “Single- and Multiple-Dose Trials to Determine the Pharmacokinetics, Safety, Tolerability, and Sex Effect of Oral Ginsenoside Compound K in Healthy Chinese Volunteers” (Frontiers in Pharmacology, 2018).
# Test system: healthy Chinese volunteers
# Assay: Single-dose trial, safety and tolerability (adverse events)
# Format: in vivo, human
# Protocol: Single-dose pharmacokinetics: The single-dose trial was performed first. Seven doses of CK were given orally under fasting condition: 25, 50, 100, 200, 400, 600, and 800 mg. Eligible subjects (n = 76, male:female = 1:1) were randomized into each dose level (n = 8, 8, 10, 10, 10, 8, 8, respectively) or placebo groups (n = 2 for each dose group) with equal number of men and women in each group. Subjects in each group were admitted to the clinical facility the day before drug administration and received the corresponding dose of the test drug or placebo with 250 ml warm water on the morning of the dosing day. Drinking before and after medication was prohibited for 2 h, but the amount and time of drinking were not strictly controlled at other times. All subjects had standard lunch and dinner (unified light diet) after medication 4 and 10 h.
# Safety was evaluated by continuous observation of adverse events (AEs), monitoring of vital signs, ECG, hematology, biochemistry, and urinalysis at baseline, during the trials at the set time points following drug administration, and at follow-up visits after study completion. AEs were classified by their intensity into mild, moderate and severe. Additionally, the AEs were also classified according their relationship to the test drug as positive, probable, possible, remote, or unrelated. The severity of the AEs, as well as their relationship to test drug, was assessed by a qualified physician in the unit. Clinically relevant changes in vital signs, ECG and laboratory parameters were defined as marked abnormalities. ECG were recorded in the semisupine position after a rest of at least 5 min. It is worth noting that all the information, including symptoms and signs after dosing or the medications that the subjects were concomitantly taking must be recorded on the case-report form by investigators. All available data from subjects who received the test drug and placebo were included in the summaries of the safety data and were descriptively analyzed. In addition, the differences between laboratory parameters at baseline and after drug treatment were analyzed to determine whether there were clinical significances.
# All the safety data, including vital signs, laboratory indexes and ECG, were descriptively analyzed, and the statistical analyses were conducted to evaluate the effects of the test drug by comparing the differences between before and after drug treatment, between the test drug group and the placebo group and among the different dose groups.
# [1] = single-dose trial, 25 mg (n = 8)
# [2] = single-dose trial, 50 mg (n = 8)
# [3] = single-dose trial, 100 mg (n = 10)
# [4] = single-dose trial, 200 mg (n = 10)
# [5] = single-dose trial, 400 mg (n = 10)
# [6] = single-dose trial, 600 mg (n = 8)
# [7] = single-dose trial, 800 mg (n = 8)
# [8] = single-dose trial, of the 44 cases of AEs
smiles,measurement,setting,value
"CC(C)=CCC[C@](C)(OC1O[C@H](CO)[C@@H](O)[C@H](O)[C@H]1O)[C@H]1CC[C@]2(C)[C@@H]1[C@H](O)C[C@@H]1[C@@]3(C)CC[C@H](O)C(C)(C)[C@@H]3CC[C@]12C (stereo partly drawn) [CK, 20-O-beta-D-glucopyranosyl-20(S)-protopanaxadiol]",ECG after the drug treatments,both trials,none of the subjects had clinically significant abnormalities
same,intensity of all observed AEs,both trials,mild or moderate
same,serious AEs,both trials,no serious AEs reported
same,safety and tolerability,"single dose 25 to 800 mg and multiple doses of 100–400 mg, both trials",safe and well-tolerated
same,AEs after taking the test drug,single-dose trial,33 AEs
same,subjects who suffered AEs after taking the test drug,single-dose trial,22 subjects
same,Alkaline phosphatase increased (study drug-related AE),[1],0 number of subjects (%)
same,Any AEs (study drug-related),[1],0 number of subjects (%)
same,Bellyache (study drug-related AE),[1],0 number of subjects (%)
same,Blood white cells increased (study drug-related AE),[1],0 number of subjects (%)
same,Diarrhea (study drug-related AE),[1],0 number of subjects (%)
same,Direct bilirubin increased (study drug-related AE),[1],0 number of subjects (%)
same,Dizziness (study drug-related AE),[1],0 number of subjects (%)
same,Headache (study drug-related AE),[1],0 number of subjects (%)
same,Loss of appetite (study drug-related AE),[1],0 number of subjects (%)
same,Nausea (study drug-related AE),[1],0 number of subjects (%)
same,Rash (study drug-related AE),[1],0 number of subjects (%)
same,Subcutaneous bleeding (double forearm) (study drug-related AE),[1],0 number of subjects (%)
same,Total bilirubin increased (study drug-related AE),[1],0 number of subjects (%)
same,Alkaline phosphatase increased (study drug-related AE),[2],0 number of subjects (%)
same,Any AEs (study drug-related),[2],2 (2.6) number of subjects (%)
same,Bellyache (study drug-related AE),[2],0 number of subjects (%)
same,Blood white cells increased (study drug-related AE),[2],0 number of subjects (%)
same,Diarrhea (study drug-related AE),[2],0 number of subjects (%)
same,Direct bilirubin increased (study drug-related AE),[2],2 (2.6) number of subjects (%)
same,Dizziness (study drug-related AE),[2],0 number of subjects (%)
same,Headache (study drug-related AE),[2],0 number of subjects (%)
same,Loss of appetite (study drug-related AE),[2],0 number of subjects (%)
same,Nausea (study drug-related AE),[2],0 number of subjects (%)
same,Rash (study drug-related AE),[2],0 number of subjects (%)
same,Subcutaneous bleeding (double forearm) (study drug-related AE),[2],0 number of subjects (%)
same,Total bilirubin increased (study drug-related AE),[2],0 number of subjects (%)
same,Alkaline phosphatase increased (study drug-related AE),[3],0 number of subjects (%)
same,Any AEs (study drug-related),[3],2 (2.6) number of subjects (%)
same,Bellyache (study drug-related AE),[3],0 number of subjects (%)
same,Blood white cells increased (study drug-related AE),[3],0 number of subjects (%)
same,Diarrhea (study drug-related AE),[3],0 number of subjects (%)
same,Direct bilirubin increased (study drug-related AE),[3],0 number of subjects (%)
same,Dizziness (study drug-related AE),[3],1 (1.3) number of subjects (%)
same,Headache (study drug-related AE),[3],1 (1.3) number of subjects (%)
same,Loss of appetite (study drug-related AE),[3],0 number of subjects (%)
same,Nausea (study drug-related AE),[3],0 number of subjects (%)
same,Rash (study drug-related AE),[3],0 number of subjects (%)
same,Subcutaneous bleeding (double forearm) (study drug-related AE),[3],0 number of subjects (%)
same,Total bilirubin increased (study drug-related AE),[3],0 number of subjects (%)
same,Alkaline phosphatase increased (study drug-related AE),[4],1 (1.3) number of subjects (%)
same,Any AEs (study drug-related),[4],5 (6.6) number of subjects (%)
same,Bellyache (study drug-related AE),[4],0 number of subjects (%)
same,Blood white cells increased (study drug-related AE),[4],0 number of subjects (%)
same,Diarrhea (study drug-related AE),[4],2 (2.6) number of subjects (%)
same,Direct bilirubin increased (study drug-related AE),[4],2 (2.6) number of subjects (%)
same,Dizziness (study drug-related AE),[4],0 number of subjects (%)
same,Headache (study drug-related AE),[4],0 number of subjects (%)
same,Loss of appetite (study drug-related AE),[4],0 number of subjects (%)
same,Nausea (study drug-related AE),[4],0 number of subjects (%)
same,Rash (study drug-related AE),[4],0 number of subjects (%)
same,Subcutaneous bleeding (double forearm) (study drug-related AE),[4],0 number of subjects (%)
same,Total bilirubin increased (study drug-related AE),[4],1 (1.3) number of subjects (%)
same,Alkaline phosphatase increased (study drug-related AE),[5],0 number of subjects (%)
same,Any AEs (study drug-related),[5],5 (6.6) number of subjects (%)
same,Bellyache (study drug-related AE),[5],1 (1.3) number of subjects (%)
same,Blood white cells increased (study drug-related AE),[5],1 (1.3) number of subjects (%)
same,Diarrhea (study drug-related AE),[5],2 (2.6) number of subjects (%)
same,Direct bilirubin increased (study drug-related AE),[5],1 (1.3) number of subjects (%)
same,Dizziness (study drug-related AE),[5],0 number of subjects (%)
same,Headache (study drug-related AE),[5],1 (1.3) number of subjects (%)
same,Loss of appetite (study drug-related AE),[5],0 number of subjects (%)
same,Nausea (study drug-related AE),[5],0 number of subjects (%)
same,Rash (study drug-related AE),[5],0 number of subjects (%)
same,Subcutaneous bleeding (double forearm) (study drug-related AE),[5],0 number of subjects (%)
same,Total bilirubin increased (study drug-related AE),[5],0 number of subjects (%)
same,Alkaline phosphatase increased (study drug-related AE),[6],0 number of subjects (%)
same,Any AEs (study drug-related),[6],1 (1.3) number of subjects (%)
same,Bellyache (study drug-related AE),[6],0 number of subjects (%)
same,Blood white cells increased (study drug-related AE),[6],0 number of subjects (%)
same,Diarrhea (study drug-related AE),[6],0 number of subjects (%)
same,Direct bilirubin increased (study drug-related AE),[6],1 (1.3) number of subjects (%)
same,Dizziness (study drug-related AE),[6],0 number of subjects (%)
same,Headache (study drug-related AE),[6],0 number of subjects (%)
same,Loss of appetite (study drug-related AE),[6],0 number of subjects (%)
same,Nausea (study drug-related AE),[6],0 number of subjects (%)
same,Rash (study drug-related AE),[6],0 number of subjects (%)
same,Subcutaneous bleeding (double forearm) (study drug-related AE),[6],0 number of subjects (%)
same,Total bilirubin increased (study drug-related AE),[6],0 number of subjects (%)
same,Alkaline phosphatase increased (study drug-related AE),[7],0 number of subjects (%)
same,Any AEs (study drug-related),[7],3 (3.9) number of subjects (%)
same,Bellyache (study drug-related AE),[7],1 (1.3) number of subjects (%)
same,Blood white cells increased (study drug-related AE),[7],0 number of subjects (%)
same,Diarrhea (study drug-related AE),[7],1 (1.3) number of subjects (%)
same,Direct bilirubin increased (study drug-related AE),[7],0 number of subjects (%)
same,Dizziness (study drug-related AE),[7],0 number of subjects (%)
same,Headache (study drug-related AE),[7],0 number of subjects (%)
same,Loss of appetite (study drug-related AE),[7],0 number of subjects (%)
same,Nausea (study drug-related AE),[7],0 number of subjects (%)
same,Rash (study drug-related AE),[7],1 (1.3) number of subjects (%)
same,Subcutaneous bleeding (double forearm) (study drug-related AE),[7],0 number of subjects (%)
same,Total bilirubin increased (study drug-related AE),[7],0 number of subjects (%)
same,AEs possibly related to CK,[8],7 cases
same,AEs probably related to the test drug,[8],13 cases
